According to patent publication US20050272770A1, “Compositions and treatments for inhibiting kinase and/or HMG-CoA reductase” (priority 2004, published 2005):
pIC50: −log10 of the molar value. Values joined by “and” are separate entries in the source; they are usually repeats but may differ in a detail not shown here. Equal values may be shown once. Where a name gives a salt, the structure may show the parent alone. Read-outs that look alike come from different tables or passages of the source.

What was measured:
[1] = system: LPS-induced TNF-α release from human peripheral blood mononuclear cells; test: Whole cell LPS-stimulated TNF-α release assay; type: cell-based
Protocol: The procedure as described in Welker et al., Int. Arch. Allergy and Immunol. 109:110-115 (1996) can be followed. Briefly, a candidate compound and/or vehicle can be preincubated with human peripheral blood mononuclear leukocytes (PBML, 5×10^5/ml) cells in AIM-V medium pH 7.4 for 2 hours. Lipopolysaccharide (LPS, 25 ng/ml) can be added to stimulate the cells, which can be incubated overnight at 37° C. TNF-α cytokine levels in the conditioned medium can then be quantitated using a sandwich ELISA kit.
(§1) Table III below summarizes the results of in vitro assays described above for HMG-CoA and/or MAP kinase inhibitory activity of specific pyrazole compounds.

[2] = biological target: T1, human recombinant p38α protein kinase (Homo sapiens, UniProt Q16539); test: Human p38α MAP kinase inhibition assay (cell-free, phosphorylation of myelin basic protein); type: biochemical
T1 construct: purchased UBI 14-251; host or cells: E. coli
Protocol: In vitro cell-free p38α MAP kinase inhibition assays were conducted by the method as described in Clerk et al., FEBS Lett., 426:93-96 (1998) for a number of lactones in formulas I/IIa/IIb. Briefly, human recombinant p38α protein kinase expressed in E. coli (UBI #14-251) was used. Myelin basic protein (MBP, UBI #13-110) was employed as substrate, and microtiter plate wells were coated with MBP (0.01 mg/ml) overnight at 4° C. Candidate compound and/or vehicle was preincubated with 0.075 μg/mL enzyme in modified HEPES buffer pH 7.4 at 25° C. for 15 minutes. The reaction was initiated by addition of 100 μM ATP and allowed to proceed for another 60 minutes. The reaction was terminated by aspirating the solution. Phosphorylated MBP was detected by incubation with a mouse monoclonal IgG2a anti-phosphoMBP antibody. Bound anti-phosphoMBP antibody was quantitated by incubation with a HRP conjugated goat anti-mouse IgG.

[3] = system: oxazolone-induced mouse ear swelling; test: Model for inhibition of topical inflammation (oxazolone-induced mouse ear swelling); type: in vivo, BALB/c male mice; conditions: for % Inh. of oxazolone-induced mouse ear swelling: topical, ear thickness 24 hours after challenge
Protocol: Left ears were untreated. The thickness of both ears of each animal was measured with a Dyer model micrometer gauge 24 hours after oxazolone challenge, and the net increase in thickness of right ears versus left ears was calculated for each animal. Percent inhibition was calculated according to the formula: [(Iv−It)/Iv]×100, where Iv and It respectively refer to the average net increase in right ear thickness (mm) for vehicle and candidate compound treated mice.

[4] = biological target: T2, rat liver HMG-CoA reductase (Rattus norvegicus, UniProt P51639); test: Cell-free HMG-CoA reductase assay; type: biochemical; conditions: concentration required to inhibit rat liver HMG-CoA reductase by 50%; read-out: IC50 HMG-CoA R
T2 construct: from tissue; host or cells: rat liver (per the results' head)
T2 sequence (P51639 1-887): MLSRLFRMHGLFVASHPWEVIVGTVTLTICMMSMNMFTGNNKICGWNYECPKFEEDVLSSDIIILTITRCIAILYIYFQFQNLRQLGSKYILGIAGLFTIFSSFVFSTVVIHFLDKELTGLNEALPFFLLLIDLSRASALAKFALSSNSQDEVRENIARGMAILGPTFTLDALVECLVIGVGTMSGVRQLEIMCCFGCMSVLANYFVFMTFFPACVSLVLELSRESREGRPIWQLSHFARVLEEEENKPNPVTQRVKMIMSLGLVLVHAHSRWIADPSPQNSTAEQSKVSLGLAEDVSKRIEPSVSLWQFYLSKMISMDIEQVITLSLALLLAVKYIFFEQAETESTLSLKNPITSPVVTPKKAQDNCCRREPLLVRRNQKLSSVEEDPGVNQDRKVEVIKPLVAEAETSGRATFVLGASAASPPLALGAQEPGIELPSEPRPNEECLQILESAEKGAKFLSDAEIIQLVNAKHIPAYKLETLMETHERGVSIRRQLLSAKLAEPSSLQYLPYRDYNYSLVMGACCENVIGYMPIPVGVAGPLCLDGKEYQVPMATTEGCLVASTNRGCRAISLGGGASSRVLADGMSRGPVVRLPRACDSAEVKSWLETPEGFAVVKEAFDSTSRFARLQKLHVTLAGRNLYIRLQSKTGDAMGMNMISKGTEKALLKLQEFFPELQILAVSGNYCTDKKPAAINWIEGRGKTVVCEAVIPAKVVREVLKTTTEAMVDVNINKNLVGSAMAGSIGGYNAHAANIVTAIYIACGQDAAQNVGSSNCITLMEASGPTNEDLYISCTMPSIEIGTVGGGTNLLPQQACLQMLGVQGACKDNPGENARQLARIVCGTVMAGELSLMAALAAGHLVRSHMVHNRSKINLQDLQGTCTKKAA
Protocol: An example of a cell-free HMG-CoA reductase assay involves radiometric procedures described in Shum et al., Ther. Drug Monit. 20:41-49 (1998), incorporated herein by reference. Briefly, about 150 μg/mL of HMG-CoA reductase can be incubated with a candidate compound, together with about 12 μM [^14C]HMG-CoA and about 200 μM NADPH in about 200 μL 0.2M phosphate buffer (pH about 7.2) for about 0.5 h at about 37° C. The [^14C]mevalonate that forms can be converted under acidic conditions to [^14C]mevalonolactone and separated from un-reacted substrate, for example, by ion-exchange chromatography, and then quantified, for example, by liquid scintillation counting.
as §1

[5] = Homo sapiens, PBMC; read-out: IC50 Whole cell
[6] = inhibition of phosphorylation of myelin basic protein by recombinant human p38α MAP kinase by 50%, Table III, read-out: IC50 p38α MAPK
[7] = in vitro, human p38α MAP kinase, Table I, read-out: IC50 p38α
[8] = Homo sapiens, PBMC, read-out: IC50 Whole cell

T1 sequence (Q16539 whole entry): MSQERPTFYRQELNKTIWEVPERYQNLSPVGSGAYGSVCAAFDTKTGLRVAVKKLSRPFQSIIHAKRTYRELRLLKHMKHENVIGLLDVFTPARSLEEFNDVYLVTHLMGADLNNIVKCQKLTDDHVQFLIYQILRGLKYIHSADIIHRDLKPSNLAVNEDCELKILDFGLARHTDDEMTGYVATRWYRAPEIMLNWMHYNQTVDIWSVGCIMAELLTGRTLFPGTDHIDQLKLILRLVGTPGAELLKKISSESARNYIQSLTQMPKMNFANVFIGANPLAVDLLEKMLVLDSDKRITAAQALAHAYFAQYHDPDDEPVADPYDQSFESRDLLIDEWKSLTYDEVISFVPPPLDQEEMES

O=C1C[C@H](O)C[C@@H](CCc2c(-c3ccccc3)nn(-c3ccnc(Nc4ccccc4)n3)c2-c2ccccc2)O1 [Example 11d, (4R,6R)-6-(2-(3,5-diphenyl-1-(2-(phenylamino)pyrimidin-4-yl)-1H-pyrazol-4-yl)ethyl)-4-hydroxy-tetrahydropyran-2-one]
pIC50 [1, 5]: 4.96
pIC50 [2, 6]: 5.10

CC(C)c1nc(N(C)S(C)(=O)=O)nc(-c2ccc(F)cc2)c1/C=C/[C@@H](O)C[C@@H](O)CC(=O)O [Rosuvastatin sodium]
% Inh. of oxazolone-induced mouse ear swelling ([3]; dose 2 × 0.3 mg): 20%

CC(C)n1c(/C=C/C(O)CC(O)CC(=O)O)c(-c2ccc(F)cc2)c2ccccc21 (centres unmarked) [Fluvastatin sodium]
% Inh. of oxazolone-induced mouse ear swelling ([3]; dose 2 × 0.3 mg): 28%
pIC50 [2, 7]: ~4.47 and 4.47

COc1nccc(-n2nc(C(C)C)c(/C=C/[C@@H]3C[C@@H](O)CC(=O)O3)c2-c2cccc(C(F)(F)F)c2)n1 [Example 11f, (4R,6S,E)-4-hydroxy-6-(2-(3-isopropyl-1-(2-methoxypyrimidin-4-yl)-5-(3-(trifluoromethyl)phenyl)-1H-pyrazol-4-yl)vinyl)-tetrahydropyran-2-one]
pIC50 [1, 5]: 4.80
pIC50 [2, 6]: < 4.00

COc1ccc2c(c1)c(CC(=O)O)c(C)n2C(=O)c1ccc(Cl)cc1 [Indomethacin]
% Inh. of oxazolone-induced mouse ear swelling ([3]; dose 2 × 0.3 mg): 44%

CC(C)c1c(C(=O)Nc2ccccc2)c(-c2ccccc2)c(-c2ccc(F)cc2)n1CC[C@@H]1C[C@@H](O)CC(=O)O1 [Atorvastatin lactone]
anti-inflammatory activity in ear swelling model, comparison in words ([3]; observations on Table II): most potent anti-inflammatory activity in this assay
% Inh. of oxazolone-induced mouse ear swelling ([3]; dose 2 × 0.3 mg): 40%
% Inh. of oxazolone-induced mouse ear swelling ([3]; dose 2 × 0.3 mg, listed as atorvastatin lactone): 50% and 58% and 40%
% Inh. of oxazolone-induced mouse ear swelling ([3]; dose 2 × 1 mg): 58%
% Inh. of oxazolone-induced mouse ear swelling ([3]; dose 2 × 2 mg): 50%
pIC50 [2, 7]: ~4.70 and 4.70

Simvastatin sodium
pIC50 [2, 7]: < 4.00

CC(C)c1nc(N(C)S(C)(=O)=O)nc(-c2ccc(F)cc2)c1/C=C/[C@@H](O)C[C@@H](O)CC(=O)O [Rosuvastatin calcium]
pIC50 [2, 7]: 4.04

CC(C)c1c(C(=O)Nc2ccccc2)c(-c2ccccc2)c(-c2ccc(F)cc2)n1CC[C@@H](O)C[C@@H](O)CC(=O)O [Atorvastatin sodium]
% Inh. of oxazolone-induced mouse ear swelling ([3]; dose 2 × 0.3 mg): 9%
% Inh. of oxazolone-induced mouse ear swelling ([3]; dose 2 × 1 mg): 31%
% Inh. of oxazolone-induced mouse ear swelling ([3]; dose 2 × 2 mg): 63%

CC(C)c1c(C(=O)Nc2ccccc2)c(-c2ccccc2)c(-c2ccc(F)cc2)n1CC[C@@H](O)C[C@@H](O)CC(=O)O [Atorvastatin calcium]
pIC50 [2, 7]: < 4.00

O=C(O)C[C@H](O)C[C@H](O)CCc1c(-c2ccccc2)nn(-c2ccnc(Nc3ccccc3)n2)c1-c1ccccc1 [Example 11c, (3R,5R)-7-(3,5-diphenyl-1-(2-(phenylamino)pyrimidin-4-yl)-1H-pyrazol-4-yl)-3,5-dihydroxyheptanoic acid]
pIC50 [1, 5]: 4.74
pIC50 [4]: < 7.00

COc1nccc(-n2nc(C(C)C)c(/C=C/[C@@H](O)C[C@@H](O)CC(=O)O)c2-c2cccc(C(F)(F)F)c2)n1 [Example 11e, (3R,5S,E)-3,5-dihydroxy-7-(3-isopropyl-1-(2-methoxypyrimidin-4-yl)-5-(3-(trifluoromethyl)phenyl)-1H-pyrazol-4-yl)hept-6-enoic acid calcium salt]
pIC50 ([1]; inhibition of LPS-induced TNF-α release from human peripheral blood mononuclear cells by 50%; read-out: IC50 Whole cell): 4.52
pIC50 [4]: 8.70
pIC50 [2, 6]: 4.44

CC[C@H](C)C(=O)O[C@H]1C[C@H](O)C=C2C=C[C@H](C)[C@H](CC[C@@H](O)C[C@@H](O)CC(=O)O)[C@H]21 [Pravastatin sodium]
% Inh. of oxazolone-induced mouse ear swelling ([3]; dose 2 × 0.3 mg): 24%

O=C([O-])C[C@H](O)C[C@H](O)/C=C/c1c(C2CC2)nc2ccccc2c1-c1ccc(F)cc1.O=C([O-])C[C@H](O)C[C@H](O)/C=C/c1c(C2CC2)nc2ccccc2c1-c1ccc(F)cc1.[Ca+2] [Pitavastatin calcium]
% Inh. of oxazolone-induced mouse ear swelling ([3]; dose 2 × 0.3 mg): 9%
% Inh. of oxazolone-induced mouse ear swelling ([3]; dose 2 × 2 mg): 60%

CCC(C)c1nn(-c2ccnc(Nc3ccccc3)c2)c(-c2ccc(F)cc2)c1/C=C/[C@@H]1C[C@@H](O)CC(=O)O1 (some centres unmarked) [Example 10b]
pIC50 [1, 5]: 4.85
pIC50 [2, 6]: 5.22

O=C(O)C[C@H](O)C[C@H](O)/C=C/c1cnn(-c2ccnc(Nc3ccccc3)n2)c1-c1cccc(C(F)(F)F)c1 [Example 11g, (3R,5S,E)-3,5-dihydroxy-7-(1-(2-(phenylamino)pyrimidin-4-yl)-5-(3-(trifluoromethyl)phenyl)-1H-pyrazol-4-yl)hept-6-enoic acid calcium salt]
pIC50 [1, 8]: 4.28
pIC50 [4]: < 7.00
pIC50 [2, 6]: 4.85

O=C(O)C[C@H](O)C[C@H](O)/C=C/c1c(-c2ccccc2)nn(-c2ccnc(Nc3ccccc3)n2)c1-c1ccccc1 [Example 11a, (3R,5S,E)-7-(3,5-diphenyl-1-(2-(phenylamino)pyrimidin-4-yl)-1H-pyrazol-4-yl)-3,5-dihydroxyhept-6-enoic acid calcium salt]
pIC50 [1, 8]: 4.51
pIC50 [4]: 7.48
pIC50 [2, 6]: 4.96

O=C1C[C@H](O)C[C@@H](/C=C/c2c(-c3ccccc3)nn(-c3ccnc(Nc4ccccc4)n3)c2-c2ccccc2)O1 [Example 11b, (4R,6S,E)-6-(2-(3,5-diphenyl-1-(2-(phenylamino)pyrimidin-4-yl)-1H-pyrazol-4-yl)vinyl)-4-hydroxy-tetrahydropyran-2-one]
pIC50 [1, 5]: 4.68
pIC50 [2, 6]: 5.22
